# Assay results as given in PMC12059914, “Discovery of Novel Allosteric Inhibitor Hits for Insulin-Regulated Aminopeptidase Provides Insights on Enzymatic Mechanism” (ACS Omega, 2025).
# Key:
# Format in all cases: biochemical
# [1] = biological target: T1, IRAP (insulin-regulated aminopeptidase) (Homo sapiens, UniProt Q9UIQ6); test: HPLC vasopressin trimming, dose-response
# T1 construct: gene LNPEP; extracellular (luminal) aminopeptidase domain; Rhodopsin 1D4 tag (given as N-terminal); secreted from stably transfected HEK 293S GnTI(-) cells; PDB ids are the docking structures
# T1 sequence (Q9UIQ6 132-1025 limits assumed): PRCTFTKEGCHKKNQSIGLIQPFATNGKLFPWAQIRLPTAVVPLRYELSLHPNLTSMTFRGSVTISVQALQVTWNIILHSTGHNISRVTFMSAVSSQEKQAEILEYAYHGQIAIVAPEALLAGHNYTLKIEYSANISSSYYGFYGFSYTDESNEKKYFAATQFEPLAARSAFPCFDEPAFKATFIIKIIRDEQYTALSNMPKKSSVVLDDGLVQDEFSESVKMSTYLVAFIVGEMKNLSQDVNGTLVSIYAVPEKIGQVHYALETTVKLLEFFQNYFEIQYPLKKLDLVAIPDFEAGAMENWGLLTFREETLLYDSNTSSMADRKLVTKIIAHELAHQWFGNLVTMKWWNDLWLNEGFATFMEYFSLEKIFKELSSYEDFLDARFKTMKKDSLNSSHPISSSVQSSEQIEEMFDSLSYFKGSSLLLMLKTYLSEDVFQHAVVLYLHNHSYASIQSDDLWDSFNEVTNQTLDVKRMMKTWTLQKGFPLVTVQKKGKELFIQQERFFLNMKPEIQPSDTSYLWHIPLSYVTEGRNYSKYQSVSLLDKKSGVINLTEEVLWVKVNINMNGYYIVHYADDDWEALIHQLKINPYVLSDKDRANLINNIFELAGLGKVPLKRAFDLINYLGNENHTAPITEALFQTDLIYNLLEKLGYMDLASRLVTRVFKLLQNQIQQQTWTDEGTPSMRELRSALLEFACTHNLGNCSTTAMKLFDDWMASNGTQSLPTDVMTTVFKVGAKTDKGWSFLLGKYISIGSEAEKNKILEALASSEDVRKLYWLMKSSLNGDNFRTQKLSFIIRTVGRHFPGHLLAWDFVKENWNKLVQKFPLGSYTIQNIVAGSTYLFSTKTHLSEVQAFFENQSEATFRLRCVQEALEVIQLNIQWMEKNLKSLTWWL
# ERAP1 [2] = biological target: T2, ERAP1 (Homo sapiens, UniProt Q9NZ08); test: fluorogenic Leu-AMC hydrolysis, dose-response
# T2 construct: recombinant; Hi5 insect cells, baculovirus; Ni-NTA purified
# T2 sequence (Q9NZ08 whole entry): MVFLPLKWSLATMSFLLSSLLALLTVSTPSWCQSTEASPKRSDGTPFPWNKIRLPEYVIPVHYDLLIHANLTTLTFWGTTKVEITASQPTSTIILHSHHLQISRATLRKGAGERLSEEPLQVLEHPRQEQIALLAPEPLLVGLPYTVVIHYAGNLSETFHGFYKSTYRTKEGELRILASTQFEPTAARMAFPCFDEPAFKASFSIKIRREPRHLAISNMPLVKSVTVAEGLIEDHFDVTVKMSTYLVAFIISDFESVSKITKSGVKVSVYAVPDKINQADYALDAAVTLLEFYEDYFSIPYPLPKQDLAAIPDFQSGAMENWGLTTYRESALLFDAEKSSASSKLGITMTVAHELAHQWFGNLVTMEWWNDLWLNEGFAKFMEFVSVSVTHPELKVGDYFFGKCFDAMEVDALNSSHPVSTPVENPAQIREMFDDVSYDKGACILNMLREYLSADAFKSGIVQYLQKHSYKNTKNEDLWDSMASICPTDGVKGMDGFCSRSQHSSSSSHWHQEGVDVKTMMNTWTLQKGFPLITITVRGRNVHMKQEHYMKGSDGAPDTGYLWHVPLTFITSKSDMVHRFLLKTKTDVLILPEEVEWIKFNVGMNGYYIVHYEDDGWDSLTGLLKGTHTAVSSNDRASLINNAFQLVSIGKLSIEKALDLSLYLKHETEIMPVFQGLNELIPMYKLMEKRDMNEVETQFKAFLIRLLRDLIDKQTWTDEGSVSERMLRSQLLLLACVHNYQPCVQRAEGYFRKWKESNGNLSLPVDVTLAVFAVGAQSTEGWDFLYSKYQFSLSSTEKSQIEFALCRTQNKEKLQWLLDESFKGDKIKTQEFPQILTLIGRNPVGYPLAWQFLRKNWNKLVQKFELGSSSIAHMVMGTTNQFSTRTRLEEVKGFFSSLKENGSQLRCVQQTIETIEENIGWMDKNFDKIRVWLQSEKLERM
# ERAP2 = biological target: T3, ERAP2 (Homo sapiens, UniProt Q6P179); test: fluorogenic Arg-AMC hydrolysis, dose-response
# T3 construct: recombinant; Hi5 insect cells, baculovirus; Ni-NTA purified
# T3 sequence (Q6P179 whole entry): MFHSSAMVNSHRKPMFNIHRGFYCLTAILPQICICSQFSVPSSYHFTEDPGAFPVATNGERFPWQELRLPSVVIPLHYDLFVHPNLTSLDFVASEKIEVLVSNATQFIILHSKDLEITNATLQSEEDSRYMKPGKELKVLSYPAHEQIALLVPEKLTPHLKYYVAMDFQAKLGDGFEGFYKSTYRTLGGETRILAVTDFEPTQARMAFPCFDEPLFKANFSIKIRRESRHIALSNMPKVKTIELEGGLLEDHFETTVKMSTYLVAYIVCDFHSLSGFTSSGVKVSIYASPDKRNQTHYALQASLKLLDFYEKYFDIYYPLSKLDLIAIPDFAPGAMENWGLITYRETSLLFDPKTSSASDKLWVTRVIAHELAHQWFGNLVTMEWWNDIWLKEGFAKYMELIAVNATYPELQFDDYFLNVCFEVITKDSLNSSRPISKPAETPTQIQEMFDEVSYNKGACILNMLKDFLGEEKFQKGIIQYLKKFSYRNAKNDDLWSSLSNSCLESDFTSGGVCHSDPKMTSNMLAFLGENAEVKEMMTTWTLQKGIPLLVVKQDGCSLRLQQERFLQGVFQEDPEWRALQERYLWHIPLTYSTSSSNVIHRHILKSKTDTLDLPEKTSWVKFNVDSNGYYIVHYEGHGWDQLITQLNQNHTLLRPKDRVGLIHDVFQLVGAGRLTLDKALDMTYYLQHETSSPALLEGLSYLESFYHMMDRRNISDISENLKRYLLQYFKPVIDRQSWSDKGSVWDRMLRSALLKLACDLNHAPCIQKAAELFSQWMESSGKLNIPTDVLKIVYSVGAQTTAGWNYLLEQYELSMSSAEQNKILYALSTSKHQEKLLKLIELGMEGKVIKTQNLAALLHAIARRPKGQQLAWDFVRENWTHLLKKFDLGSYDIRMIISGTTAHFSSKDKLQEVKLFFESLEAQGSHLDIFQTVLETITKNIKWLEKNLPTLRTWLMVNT
# [3] = biological target: T1, IRAP (insulin-regulated aminopeptidase); test: fluorogenic Leu-AMC hydrolysis, dose-response
# ERAP1 [4] = biological target: T2, ERAP1; test: fluorogenic Leu-AMC hydrolysis, dose-response; remark: listed apart in the source
# [5] = biological target: T1, IRAP (insulin-regulated aminopeptidase); test: Michaelis-Menten, fluorescence; settings: pH 7.0, 1 nM enzyme, no inhibitor
SMILES,IC50 [1] [µM],IC50 (ERAP1 [2]) [µM],IC50 (ERAP2) [µM],IC50 [3] [µM],EC50 (ERAP1 [4]) [µM],KM [5]
O=C(O)C1(CF)CCN(Cc2cc3c(Br)cc(F)cc3[nH]2)C1 (racemic) [compound 2],280,–,–,–,–,–
O=C(O)c1cc(CN2CCCCC2CCCc2ccccc2)[nH]n1 (racemic) [compound 8],–,> 300,> 10000,30,–,–
NCc1cc(C(=O)NC(Cc2ccccc2Cl)c2ccccc2)n[nH]1 (racemic) [compound 11],–,–,1300,125,~450,–
Cc1ccc(CC(C)(CO)NC(=O)c2cc(-c3c[nH]c4ccccc34)[nH]n2)cc1 (racemic) [compound 17],–,> 300,3600,208,–,–
Cc1cc(=O)oc2cc(NC(=O)[C@@H](N)CC(C)C)ccc12 [Leu-AMC],–,–,–,–,–,"Michaelis–Menten analysis of (A, B) Leu-AMC substrate digestion by IRAP"
